From patent US6914045B2, “Glycopeptide antibiotics” (Wyeth Holdings Corporation, priority 2001, dated 2005)
Values after ≈ are worked out from the molar mass of the structure shown.

Assays:
Experiment in all cases: in vitro antibacterial evaluation, MIC by broth dilution
Type in all cases: cell-based
[1] = system: Streptococcus sp.; settings: broth dilution, 18 hours at 35° C.
Outline: (§1)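 Read-out: the lowest concentration at which the test strain fails to grow. Serial dilutions (64-0.06 μg/mL) in Muller-Hinton II […], 5×10^5 CFU/mL inoculum, NCCLS M7-A2 procedure.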

[2] = system: Escherichia coli; settings: 18 hours at 35° C.
Outline: as §1

[3] = system: Staphylococcus sp.; settings: broth dilution, 18 hours at 35° C.
Outline: as §1

[4] = system: Enterococcus sp.; settings: broth dilution, 18 hours at 35° C.
Outline: as §1

MIC Streptococcus agalactiae (GC 4564) ([1]; Streptococcus agalactiae (GC 4564)): 8 µg/mL (≈ 4.84 µM)
MIC Streptococcus pneumoniae (ATCC 6301) ([1]; Streptococcus pneumoniae (ATCC 6301)): 8 µg/mL (≈ 4.84 µM)
MIC Streptococcus pneumoniae (GC 1894) ([1]; Streptococcus pneumoniae (GC 1894)): 1 µg/mL (≈ 0.605 µM)
MIC Streptococcus pneumoniae (GC 4565) ([1]; Streptococcus pneumoniae (GC 4565)): 4 µg/mL (≈ 2.42 µM)
MIC Streptococcus pyogenes (GC 4563) ([1]; Streptococcus pyogenes (GC 4563)): 16 µg/mL (≈ 9.69 µM)
MIC Streptococcus pneumoniae (ATCC 6301) ([1]; strain ATCC 6301): 8 µg/mL (≈ 4.84 µM)
MIC Streptococcus pneumoniae (GC 1894) ([1]; strain GC 1894): 1 µg/mL (≈ 0.605 µM)
MIC Streptococcus pyogenes (GC 4563) ([1]; strain GC 4563): 16 µg/mL (≈ 9.69 µM)
MIC Streptococcus agalactiae (GC 4564) ([1]; strain GC 4564): 8 µg/mL (≈ 4.84 µM)
MIC Streptococcus pneumoniae (GC 4565) ([1]; strain GC 4565): 4 µg/mL (≈ 2.42 µM)
MIC Escherichia coli (ATCC 25922) ([2]; strain ATCC 25922): >64 µg/mL
MIC Escherichia coli (GC 4559) ([2]; strain GC 4559): >64 µg/mL
MIC Escherichia coli (GC 4560) ([2]; strain GC 4560): 64 µg/mL (≈ 38.7 µM)
MIC Staphylococcus aureus (ATCC 29213) [3]: 32 µg/mL (≈ 19.4 µM)
MIC Staphylococcus aureus (GC 1131) [3]: 32 µg/mL (≈ 19.4 µM)
MIC Staphylococcus aureus (GC 3051) [3]: 32 µg/mL (≈ 19.4 µM)
MIC Staphylococcus aureus (GC 3053) [3]: 32 µg/mL (≈ 19.4 µM)
MIC Staphylococcus aureus (GC 4541) [3]: 32 µg/mL (≈ 19.4 µM)
MIC Staphylococcus aureus (GC 4542) [3]: 32 µg/mL (≈ 19.4 µM)
MIC Staphylococcus aureus (GC 4544) [3]: 32 µg/mL (≈ 19.4 µM)
MIC Staphylococcus aureus (GC 4545) [3]: 32 µg/mL (≈ 19.4 µM)
MIC Staphylococcus aureus (GC 1131) ([3]; inoculum 5×10^5 CFU/mL, strain GC 1131): 32 µg/mL (≈ 19.4 µM)
MIC Staphylococcus aureus (ATCC 29213) ([3]; strain ATCC 29213): 32 µg/mL (≈ 19.4 µM)
MIC Staphylococcus aureus (GC 3051) ([3]; strain GC 3051): 32 µg/mL (≈ 19.4 µM)
MIC Staphylococcus aureus (GC 3053) ([3]; strain GC 3053): 32 µg/mL (≈ 19.4 µM)
MIC Staphylococcus aureus (GC 4541) ([3]; strain GC 4541): 32 µg/mL (≈ 19.4 µM)
MIC Staphylococcus aureus (GC 4542) ([3]; strain GC 4542): 32 µg/mL (≈ 19.4 µM)
MIC Staphylococcus aureus-SMITH (GC 4543) ([3]; strain GC 4543): 32 µg/mL (≈ 19.4 µM)
MIC Staphylococcus aureus (GC 4544) ([3]; strain GC 4544): 32 µg/mL (≈ 19.4 µM)
MIC Staphylococcus aureus (GC 4545) ([3]; strain GC 4545): 32 µg/mL (≈ 19.4 µM)
MIC Coagulase Negative Staphylococcus (GC 4547) ([3]; strain GC 4547): 32 µg/mL (≈ 19.4 µM)
MIC Coagulase Negative Staphylococcus (GC 4548) ([3]; strain GC 4548): 32 µg/mL (≈ 19.4 µM)
MIC Coagulase Negative Staphylococcus (GC 4549) ([3]; strain GC 4549): 16 µg/mL (≈ 9.69 µM)
MIC Coagulase Negative Staphylococcus (GC 4551) ([3]; strain GC 4551): 32 µg/mL (≈ 19.4 µM)
MIC Coagulase Negative Staphylococcus (GC 6257) ([3]; strain GC 6257): 32 µg/mL (≈ 19.4 µM)
MIC Staphylococcus aureus-SMITH (GC 4543) ([3]; strain SMITH GC 4543): 32 µg/mL (≈ 19.4 µM)
MIC Enterococcus avium (GC 4558) ([4]; Enterococcus avium (GC 4558)): 16 µg/mL (≈ 9.69 µM)
MIC Enterococcus faecalis (ATCC 29212) ([4]; Enterococcus faecalis (ATCC 29212)): 32 µg/mL (≈ 19.4 µM)
MIC Enterococcus faecalis (GC 2242) ([4]; Enterococcus faecalis (GC 2242)): 32 µg/mL (≈ 19.4 µM)
MIC Enterococcus faecalis (GC 2691) ([4]; Enterococcus faecalis (GC 2691)): 32 µg/mL (≈ 19.4 µM)
MIC Enterococcus faecalis (GC 3059) ([4]; Enterococcus faecalis (GC 3059)): 64 µg/mL (≈ 38.7 µM)
MIC Enterococcus faecalis (GC 4552) ([4]; Enterococcus faecalis (GC 4552)): 32 µg/mL (≈ 19.4 µM)
MIC Enterococcus faecalis (GC 4553) ([4]; Enterococcus faecalis (GC 4553)): 8 µg/mL (≈ 4.84 µM)
MIC Enterococcus faecalis (GC 4554) ([4]; Enterococcus faecalis (GC 4554)): 32 µg/mL (≈ 19.4 µM)
MIC Enterococcus faecalis (GC 6189) ([4]; Enterococcus faecalis (GC 6189)): 32 µg/mL (≈ 19.4 µM)
MIC Enterococcus faecium (GC 2243) ([4]; Enterococcus faecium (GC 2243)): 8 µg/mL (≈ 4.84 µM)
MIC Enterococcus faecium (GC 4556) ([4]; Enterococcus faecium (GC 4556)): 64 µg/mL (≈ 38.7 µM)
MIC Enterococcus faecium (GC 4557) ([4]; Enterococcus faecium (GC 4557)): 32 µg/mL (≈ 19.4 µM)
MIC Enterococcus faecalis (ATCC 29212) ([4]; strain ATCC 29212): 32 µg/mL (≈ 19.4 µM)
MIC Enterococcus faecalis (GC 2242) ([4]; strain GC 2242): 32 µg/mL (≈ 19.4 µM)
MIC Enterococcus faecium (GC 2243) ([4]; strain GC 2243): 8 µg/mL (≈ 4.84 µM)
MIC Enterococcus faecalis (GC 2691) ([4]; strain GC 2691): 32 µg/mL (≈ 19.4 µM)
MIC Enterococcus faecalis (GC 3059) ([4]; strain GC 3059): 64 µg/mL (≈ 38.7 µM)
MIC Enterococcus faecalis (GC 4552) ([4]; strain GC 4552): 32 µg/mL (≈ 19.4 µM)
MIC Enterococcus faecalis (GC 4553) ([4]; strain GC 4553): 8 µg/mL (≈ 4.84 µM)
MIC Enterococcus faecalis (GC 4554) ([4]; strain GC 4554): 32 µg/mL (≈ 19.4 µM)
MIC Enterococcus faecium (GC 4556) ([4]; strain GC 4556): 64 µg/mL (≈ 38.7 µM)
MIC Enterococcus faecium (GC 4557) ([4]; strain GC 4557): 32 µg/mL (≈ 19.4 µM)
MIC Enterococcus avium (GC 4558) ([4]; strain GC 4558): 16 µg/mL (≈ 9.69 µM)
MIC Enterococcus faecalis (GC 6189) ([4]; strain GC 6189): 32 µg/mL (≈ 19.4 µM)
SMILES: COC1CCC2(C)C(CCC3C2CCC2(C)C(C(C)CCC4OCC5OC(OC6C(CO)OC(Oc7ccc(CC8NC(=O)C(C(C)c9ccccc9)NC(=O)CNC(=O)C(CO)NC(=O)C(C(O)C9CNC(=N)N9C9OC(CO)C(O)C(O)C9O)NC(=O)C(C(O)C9CNC(=N)N9)NC8=O)cc7)C(O)C6O)C(O)C(O)C5O4)CCC32)C1 (stereo not shown) [Example 130]
MIC Staphylococcus haemolyticus (GC 4546) ([3]; strain GC 4546): 32 µg/mL (≈ 19.4 µM)
